From PMC5218480 (PLoS ONE, 2017)

Test system: MV-4-11 cells
Test: Gene expression microarray analysis (Affymetrix PrimeView) and GSEA
Format: cell-based, human
Design: RFU PODN (11730768_x_at) / Fold change /veh PODN (11730768_x_at) / RFU LINC00158 (11744669_a_at) / Fold change /veh LINC00158 (11744669_a_at) / RFU DUSP10 (11751237_a_at) / Fold change /veh DUSP10 (11751237_a_at) / RFU ID3 (11757404_x_at) / Fold change /veh ID3 (11757404_x_at) / RFU PLEKHG5 (11737974_s_at) / Fold change /veh PLEKHG5 (11737974_s_at) / RFU LRRC4B (11730491_at) / Fold change /veh LRRC4B (11730491_at) / RFU GIMAP4 (11747438_a_at) / Fold change /veh GIMAP4 (11747438_a_at) / RFU KRT8 (11758183_x_at) / Fold change /veh KRT8 (11758183_x_at) / RFU CNN1 (11734310_a_at) / Fold change /veh CNN1 (11734310_a_at) / RFU VPS37D (11726825_at) / Fold change /veh VPS37D (11726825_at) / RFU C10orf10 (11716522_x_at) / Fold change /veh C10orf10 (11716522_x_at) / RFU KIR2DL2 /// KIR2DL4 /// KIR2DL5A /// KIR2DL5B /// KIR2DS1 /// KIR2DS2 /// KIR2DS3 /// KIR2DS4 /// KIR3DL3 /// KIR3DL3 /// KIR3DS1 (11738374_at) / Fold change /veh KIR2DL2 /// KIR2DL4 /// KIR2DL5A /// KIR2DL5B /// KIR2DS1 /// KIR2DS2 /// KIR2DS3 /// KIR2DS4 /// KIR3DL3 /// KIR3DL3 /// KIR3DS1 (11738374_at) / RFU C1QL1 (11718748_at) / Fold change /veh C1QL1 (11718748_at) / RFU TMPRSS4 (11747572_a_at) / Fold change /veh TMPRSS4 (11747572_a_at) / RFU HAMP (11756126_x_at) / Fold change /veh HAMP (11756126_x_at) / RFU RNFT2 (11725882_a_at) / Fold change /veh RNFT2 (11725882_a_at) / RFU NR4A2 (11747474_a_at) / Fold change /veh NR4A2 (11747474_a_at) / RFU ABCC12 (11746883_a_at) / Fold change /veh ABCC12 (11746883_a_at) / RFU TMEM136 (11760407_x_at) / Fold change /veh TMEM136 (11760407_x_at) / RFU CLDN22 /// WWC2 (11732394_at) / Fold change /veh CLDN22 /// WWC2 (11732394_at) / RFU HLA-DPB1 (11760878_x_at) / Fold change /veh HLA-DPB1 (11760878_x_at) / RFU SPINT1 (11716480_a_at) / Fold change /veh SPINT1 (11716480_a_at) / RFU GAP43 (11754022_s_at) / Fold change /veh GAP43 (11754022_s_at) / RFU A4GNT (11735810_at) / Fold change /veh A4GNT (11735810_at) / RFU PRB3 (11715151_x_at) / Fold change /veh PRB3 (11715151_x_at) / RFU TUBB4B (11761932_at) / Fold change /veh TUBB4B (11761932_at) / RFU CAPN14 (11732068_a_at) / Fold change /veh CAPN14 (11732068_a_at) / RFU TMCC2 (11721928_a_at) / Fold change /veh TMCC2 (11721928_a_at) / RFU IRGQ (11745062_a_at) / Fold change /veh IRGQ (11745062_a_at) / RFU FAM174B (11720279_a_at) / Fold change /veh FAM174B (11720279_a_at) / RFU TMPRSS4 (11748680_a_at) / Fold change /veh TMPRSS4 (11748680_a_at) / RFU FAM212B (11763350_a_at) / Fold change /veh FAM212B (11763350_a_at) / RFU PLEKHG5 (11743358_a_at) / Fold change /veh PLEKHG5 (11743358_a_at) / RFU ZSCAN30 (11745921_a_at) / Fold change /veh ZSCAN30 (11745921_a_at) / RFU CMKLR1 (11741424_a_at) / Fold change /veh CMKLR1 (11741424_a_at) / RFU LOC101060620 /// MAPK8IP1 (11723275_at) / Fold change /veh LOC101060620 /// MAPK8IP1 (11723275_at) / RFU SPTSSB (11747773_x_at) / Fold change /veh SPTSSB (11747773_x_at) / RFU PRSS12 (11739890_at) / Fold change /veh PRSS12 (11739890_at) / RFU BIN1 (11741810_x_at) / Fold change /veh BIN1 (11741810_x_at) / RFU WNT11 (11732464_a_at) / Fold change /veh WNT11 (11732464_a_at) / RFU C10orf10 (11716521_a_at) / Fold change /veh C10orf10 (11716521_a_at) / RFU C5orf56 (11738089_at) / Fold change /veh C5orf56 (11738089_at) / RFU CYB561 (11721691_x_at) / Fold change /veh CYB561 (11721691_x_at) / RFU ANKRD19P (11752326_a_at) / Fold change /veh ANKRD19P (11752326_a_at) / RFU OR2T12 /// OR2T33 /// OR2T8 (11738714_s_at) / Fold change /veh OR2T12 /// OR2T33 /// OR2T8 (11738714_s_at) / RFU VCAN (11748164_a_at) / Fold change /veh VCAN (11748164_a_at) / RFU JSRP1 (11732532_at) / Fold change /veh JSRP1 (11732532_at) / RFU KRTAP10-11 (11738290_x_at) / Fold change /veh KRTAP10-11 (11738290_x_at) / RFU MYO3A (11730013_a_at) / Fold change /veh MYO3A (11730013_a_at) / RFU EBF3 (11725865_a_at) / Fold change /veh EBF3 (11725865_a_at) / RFU CAMK2N1 (11719241_x_at) / Fold change /veh CAMK2N1 (11719241_x_at) / RFU C5orf56 (11738088_a_at) / Fold change /veh C5orf56 (11738088_a_at) / RFU OLFML3 (11715873_a_at) / Fold change /veh OLFML3 (11715873_a_at) / RFU LOC100653217 /// NTM (11731650_a_at) / Fold change /veh LOC100653217 /// NTM (11731650_a_at) / RFU MAPK11 (11762145_a_at) / Fold change /veh MAPK11 (11762145_a_at) / RFU FIZ1 (11724087_x_at) / Fold change /veh FIZ1 (11724087_x_at) / RFU OASL (11726364_x_at) / Fold change /veh OASL (11726364_x_at) / RFU SOX15 (11748057_x_at) / Fold change /veh SOX15 (11748057_x_at) / RFU CD79A (11719716_a_at) / Fold change /veh CD79A (11719716_a_at) / RFU HIST1H1D (11736915_at) / Fold change /veh HIST1H1D (11736915_at) / RFU CASKIN2 (11723855_a_at) / Fold change /veh CASKIN2 (11723855_a_at) / RFU LOC730098 (11760151_x_at) / Fold change /veh LOC730098 (11760151_x_at) / RFU OR4N2 (11742367_at) / Fold change /veh OR4N2 (11742367_at) / RFU PRRT2 (11749266_a_at) / Fold change /veh PRRT2 (11749266_a_at) / RFU SNX32 (11753110_a_at) / Fold change /veh SNX32 (11753110_a_at) / RFU CDHR5 (11726645_a_at) / Fold change /veh CDHR5 (11726645_a_at) / RFU RCAN1 (11760418_a_at) / Fold change /veh RCAN1 (11760418_a_at) / RFU FAM167A (11723789_a_at) / Fold change /veh FAM167A (11723789_a_at) / RFU FAM26E (11764081_at) / Fold change /veh FAM26E (11764081_at) / RFU ISYNA1 (11749810_s_at) / Fold change /veh ISYNA1 (11749810_s_at) / RFU ACY1 (11761880_at) / Fold change /veh ACY1 (11761880_at) / RFU 11764098_at / Fold change /veh 11764098_at / RFU SAMD14 (11745864_x_at) / Fold change /veh SAMD14 (11745864_x_at) / RFU NPB (11741838_a_at) / Fold change /veh NPB (11741838_a_at) / RFU TMPRSS6 (11731388_a_at) / Fold change /veh TMPRSS6 (11731388_a_at) / RFU KRTAP10-2 (11738614_at) / Fold change /veh KRTAP10-2 (11738614_at) / RFU ARHGAP8 /// PRR5-ARHGAP8 (11727945_x_at) / Fold change /veh ARHGAP8 /// PRR5-ARHGAP8 (11727945_x_at) / RFU KRTAP5-7 /// NADSYN1 (11734609_at) / Fold change /veh KRTAP5-7 /// NADSYN1 (11734609_at) / RFU RASL12 (11751679_a_at) / Fold change /veh RASL12 (11751679_a_at) / RFU CDKN2B (11736163_a_at) / Fold change /veh CDKN2B (11736163_a_at) / RFU PRF1 (11729649_at) / Fold change /veh PRF1 (11729649_at) / RFU, ZNF638 /// ZNF638-IT1 / Fold change vs veh, ZNF638 /// ZNF638-IT1 / RFU, PANK3 / Fold change vs veh, PANK3 / RFU, SH3YL1 / Fold change vs veh, SH3YL1 / RFU, ZEB2 / Fold change vs veh, ZEB2 / RFU, NRIP1 / Fold change vs veh, NRIP1 / RFU, PTTG1IP / Fold change vs veh, PTTG1IP / RFU, CAPN2 / Fold change vs veh, CAPN2 / RFU, MED14 / Fold change vs veh, MED14 / RFU, SNORA58 / Fold change vs veh, SNORA58 / RFU, C1orf63 / Fold change vs veh, C1orf63 / RFU, LRRFIP1 / Fold change vs veh, LRRFIP1 / RFU, NDUFAF7 / Fold change vs veh, NDUFAF7 / RFU, SLC12A2 / Fold change vs veh, SLC12A2 / RFU, IBTK / Fold change vs veh, IBTK / RFU, ESF1 / Fold change vs veh, ESF1 / Fold change vs veh, TMEM50B / RFU, TAOK1 / Fold change vs veh, TAOK1 / RFU, ACBD3 / Fold change vs veh, ACBD3 / RFU, TMA16 / Fold change vs veh, TMA16 / RFU, RWDD3 / Fold change vs veh, RWDD3 / RFU, BCAT1 / Fold change vs veh, BCAT1 / RFU, EDEM3 / Fold change vs veh, EDEM3 / RFU, TMEM33 / Fold change vs veh, TMEM33 / RFU, WDR75 / Fold change vs veh, WDR75 / RFU, AHCTF1 / Fold change vs veh, AHCTF1 / RFU, TFRC / Fold change vs veh, TFRC / RFU, ZDHHC17 / Fold change vs veh, ZDHHC17 / RFU, NOM1 / Fold change vs veh, NOM1 / RFU, ARL8B / Fold change vs veh, ARL8B / RFU, ZBTB11 / Fold change vs veh, ZBTB11 / RFU, TAMM41 / Fold change vs veh, TAMM41 / RFU, KIAA1704 /// LOC100996395 / Fold change vs veh, KIAA1704 /// LOC100996395 / RFU, ING1 / Fold change vs veh, ING1 / RFU, TRMT61B / Fold change vs veh, TRMT61B / RFU, FUBP3 / Fold change vs veh, FUBP3 / RFU, TP53 / Fold change vs veh, TP53 / RFU, TNKS2 / Fold change vs veh, TNKS2 / RFU, ZFP14 / Fold change vs veh, ZFP14 / RFU, ACTR2 / Fold change vs veh, ACTR2 / RFU, PPP3R1 / Fold change vs veh, PPP3R1 / RFU, PIK3R1 / Fold change vs veh, PIK3R1 / RFU, HNRNPA1 / Fold change vs veh, HNRNPA1 / RFU, RNF170 / Fold change vs veh, RNF170 / RFU, ZNF28 / Fold change vs veh, ZNF28 / RFU, RNGTT / Fold change vs veh, RNGTT / RFU, OGT / Fold change vs veh, OGT / RFU, BRD1 / Fold change vs veh, BRD1 / RFU, MARS / Fold change vs veh, MARS / RFU, ZNF655 / Fold change vs veh, ZNF655 / RFU, FAHD1 / Fold change vs veh, FAHD1 / RFU, BDP1 / Fold change vs veh, BDP1 / RFU, LRRCC1 / Fold change vs veh, LRRCC1 / RFU, ARID1A / Fold change vs veh, ARID1A / RFU, ZNF146 / Fold change vs veh, ZNF146 / RFU, ZNF330 / Fold change vs veh, ZNF330 / RFU, GPN3 / Fold change vs veh, GPN3 / RFU, C9orf123 / Fold change vs veh, C9orf123 / RFU, N4BP2L2 / Fold change vs veh, N4BP2L2 / RFU, ARFIP1 / Fold change vs veh, ARFIP1 / RFU, FAM179B / Fold change vs veh, FAM179B / RFU, BCL10 / Fold change vs veh, BCL10 / RFU, UHRF1BP1L / Fold change vs veh, UHRF1BP1L / RFU, BET1 / Fold change vs veh, BET1 / RFU, CNOT2 / Fold change vs veh, CNOT2 / RFU, ZNF268 / Fold change vs veh, ZNF268 / Fold change vs veh, ZNF507 / RFU, DGCR2 / Fold change vs veh, DGCR2 / RFU, WDSUB1 / Fold change vs veh, WDSUB1 / Fold change vs veh, HSP90B1 /// MIR3652 / RFU, ADSS / Fold change vs veh, ADSS / RFU, GK / Fold change vs veh, GK / RFU, ZNF148 / Fold change vs veh, ZNF148 / RFU, TAF9 / Fold change vs veh, TAF9 / RFU, SLC1A5 / Fold change vs veh, SLC1A5 / RFU, SLMO2 / Fold change vs veh, SLMO2 / RFU, ABCC4 / Fold change vs veh, ABCC4 / RFU, LOC101060439 /// RAP1B / Fold change vs veh, LOC101060439 /// RAP1B / RFU, RFX7 / Fold change vs veh, RFX7 / RFU, GTPBP10 / Fold change vs veh, GTPBP10 / RFU, CNEP1R1 / Fold change vs veh, CNEP1R1 / RFU, BIVM-ERCC5 /// ERCC5 / Fold change vs veh, BIVM-ERCC5 /// ERCC5 / RFU, ILF3 / Fold change vs veh, ILF3 / RFU 11762660_at / Fold change /veh 11762660_at / RFU VCAN (11757783_s_at) / Fold change /veh VCAN (11757783_s_at) / RFU DDX43 (11728927_at) / Fold change /veh DDX43 (11728927_at) / RFU KRT8 (11758188_x_at) / Fold change /veh KRT8 (11758188_x_at) / RFU NKD1 (11759106_at) / Fold change /veh NKD1 (11759106_at) / RFU SRD5A1 (11742802_a_at) / Fold change /veh SRD5A1 (11742802_a_at) / RFU TPSAB1 /// TPSB2 (11721975_s_at) / Fold change /veh TPSAB1 /// TPSB2 (11721975_s_at) / RFU GSTM3 (11746129_a_at) / Fold change /veh GSTM3 (11746129_a_at) / RFU IL23R (11737362_x_at) / Fold change /veh IL23R (11737362_x_at) / RFU TMEM51 (11727254_a_at) / Fold change /veh TMEM51 (11727254_a_at) / RFU PIWIL2 (11732686_x_at) / Fold change /veh PIWIL2 (11732686_x_at) / RFU ORM1 (11744905_x_at) / Fold change /veh ORM1 (11744905_x_at) / RFU CCDC152 (11743942_at) / Fold change /veh CCDC152 (11743942_at) / RFU ECM1 (11717891_a_at) / Fold change /veh ECM1 (11717891_a_at) / RFU IL23R (11748794_a_at) / Fold change /veh IL23R (11748794_a_at) / RFU TNFAIP8L3 (11732012_x_at) / Fold change /veh TNFAIP8L3 (11732012_x_at) / RFU MBOAT4 (11741988_at) / Fold change /veh MBOAT4 (11741988_at) / RFU 11764193_at / Fold change /veh 11764193_at / RFU TMEM53 (11763286_at) / Fold change /veh TMEM53 (11763286_at) / RFU MAGEB2 (11727129_at) / Fold change /veh MAGEB2 (11727129_at) / RFU TMEM200A (11744735_a_at) / Fold change /veh TMEM200A (11744735_a_at) / RFU CCDC152 (11751479_a_at) / Fold change /veh CCDC152 (11751479_a_at) / RFU FAM211A (11726209_a_at) / Fold change /veh FAM211A (11726209_a_at) / RFU RGS16 (11746705_a_at) / Fold change /veh RGS16 (11746705_a_at) / RFU VCAN (11755009_s_at) / Fold change /veh VCAN (11755009_s_at) / RFU RHOB (11743442_s_at) / Fold change /veh RHOB (11743442_s_at) / RFU RGS16 (11720943_a_at) / Fold change /veh RGS16 (11720943_a_at) / RFU RGS16 (11720944_at) / Fold change /veh RGS16 (11720944_at) / RFU, VPS4B / Fold change vs veh, VPS4B / RFU, CREB1 / Fold change vs veh, CREB1 / RFU, DNAJC13 / Fold change vs veh, DNAJC13 / RFU, GNAQ / Fold change vs veh, GNAQ / RFU, CDK5R1 / Fold change vs veh, CDK5R1 / RFU, ZRANB3 / Fold change vs veh, ZRANB3 / RFU, CUL4A / Fold change vs veh, CUL4A / RFU, CCNY / Fold change vs veh, CCNY / RFU, UFL1 / Fold change vs veh, UFL1 / RFU, COG3 / Fold change vs veh, COG3 / RFU, DIAPH2 / Fold change vs veh, DIAPH2 / RFU, SKA2 / Fold change vs veh, SKA2 / RFU, AFF3 / Fold change vs veh, AFF3 / RFU, LMF1 / Fold change vs veh, LMF1 / RFU, IPO11 / Fold change vs veh, IPO11 / RFU, DFFB / Fold change vs veh, DFFB / RFU, FOXP1 / Fold change vs veh, FOXP1 / RFU, CARD8 / Fold change vs veh, CARD8 / RFU, STRN3 / Fold change vs veh, STRN3 / RFU, ADK / Fold change vs veh, ADK / RFU, RASSF2 / Fold change vs veh, RASSF2 / RFU, WIPF1 / Fold change vs veh, WIPF1 / RFU, LARP1B / Fold change vs veh, LARP1B / RFU, RASA1 / Fold change vs veh, RASA1 / RFU, RB1 / Fold change vs veh, RB1 / RFU, PPFIA1 / Fold change vs veh, PPFIA1 / RFU, MAT2A / Fold change vs veh, MAT2A / RFU, CCT5 / Fold change vs veh, CCT5 / RFU, WDR92 / Fold change vs veh, WDR92 / RFU, CUX1 / Fold change vs veh, CUX1 / RFU, TTC7A / Fold change vs veh, TTC7A / RFU, TMEM135 / Fold change vs veh, TMEM135 / RFU, DEPTOR / Fold change vs veh, DEPTOR / RFU, CPM / Fold change vs veh, CPM / RFU, DNAJB6 / Fold change vs veh, DNAJB6 / RFU, CACNA2D3 / Fold change vs veh, CACNA2D3 / RFU, DTX4 / Fold change vs veh, DTX4 / RFU, TFCP2 / Fold change vs veh, TFCP2 / RFU, GMCL1 /// GMCL1P1 / Fold change vs veh, GMCL1 /// GMCL1P1 / RFU, AEBP2 / Fold change vs veh, AEBP2 / RFU, SNHG1 /// SNORD22 /// SNORD25 /// SNORD26 /// SNORD27 /// SNORD28 /// SNORD29 /// SNORD31 / Fold change vs veh, SNHG1 /// SNORD22 /// SNORD25 /// SNORD26 /// SNORD27 /// SNORD28 /// SNORD29 /// SNORD31 / Fold change (Aza/veh), C12orf56 (ProbeSet 11735607_a_at) / Fold change (ACY-1035/veh), C12orf56 (ProbeSet 11735607_a_at) / Fold change (Aza/veh), FGFR1OP (ProbeSet 11751329_s_at) / Fold change (ACY-1035/veh), FGFR1OP (ProbeSet 11751329_s_at) / Fold change (Aza/veh), VPS36 (ProbeSet 11739960_a_at) / Fold change (ACY-1035/veh), VPS36 (ProbeSet 11739960_a_at) / RFU SYPL1 (11715823_x_at) / Fold change /veh SYPL1 (11715823_x_at) / RFU IGFBP7 (11715501_s_at) / Fold change /veh IGFBP7 (11715501_s_at) / RFU REEP3 (11722064_at) / Fold change /veh REEP3 (11722064_at) / RFU IGLL1 (11728026_x_at) / Fold change /veh IGLL1 (11728026_x_at): dose or concentration left out as unconfirmed
Settings: ProbeSet 11748670_a_at; LIST B

Structure (SMILES): Nc1ncn([C@@H]2O[C@H](CO)[C@@H](O)[C@H]2O)c(=O)n1 [azacitidine]
- Fold change vs veh, PIK3R1: 1.03
